Reference: patent US20160272635A1, “SUBSTITUTED DIHYDROPYRIDO[3,4-B]PYRAZINONES AS DUAL INHIBITORS OF BET PROTEINS AND POLO-LIKE KINASES” (BAYER PHARMA AKTIENGESELLSCHAFT, priority 2013, published 2016)
Where two headings read alike, the source gives them in different places.

Legend:
[1] = target: T1, BRD4 bromo domain 1 [BRD4(1)] (Homo sapiens, UniProt O60885); assay: BRD4(1)/acetylated peptide H4 binding assay (TR-FRET); details: inhibition of interaction between BRD4(1) and acetylated histone H4 peptide
T1 construct: N-terminally His6-tagged BRD4(1) (amino acids 67-152); made in house; host or cells: E. coli
From the text: To assess the BRD4(1) binding strength of the substances described in this application, the ability thereof to inhibit the interaction between BRD4(1) and acetylated histone H4 in a dose-dependent manner was quantified.
For this purpose, a time-resolved fluorescence resonance energy transfer (TR-FRET) assay was used, which measures the binding between N-terminally His6-tagged BRD4(1) (amino acids 67-152) and a synthetic acetylated histone H4 (Ac-H4) peptide with sequence GRGK(Ac)GGK(Ac)GLGK(Ac)GGAK(Ac)RHGSGSK-biotin. The recombinant BRD4(1) protein produced in-house according to Filippakopoulos et al., Cell, 2012, 149:214-231 was expressed in E. coli and purified by means of (Ni-NTA) affinity and (Sephadex G-75) size exclusion chromatography. The Ac-H4 peptide can be purchased, for example, from Biosyntan (Berlin, Germany).
In the assay, typically 11 different concentrations of each substance (0.1 nM, 0.33 nM, 1.1 nM, 3.8 nM, 13 nM, 44 nM, 0.15 μM, 0.51 μM, 1.7 μM, 5.9 μM and 20 μM) were analysed as duplicates on the same microtitre plate. For this purpose, 100-fold concentrated solutions in DMSO were prepared by serial dilutions (1:3.4) of a 2 mM stock solution into a clear, 384-well microtitre plate (Greiner Bio-One, Frickenhausen, Germany). From this, 50 n1 were transferred into a black test plate (Greiner Bio-One, Frickenhausen, Germany). The test was started by the addition of 2 μl of a 2.5-fold concentrated BRD4(1) solution (final concentration typically 10 nM in the 5 μl of reaction volume) in aqueous assay buffer [50 mM HEPES pH 7.5, 50 mM sodium chloride (NaCl), 0.25 mM CHAPS and 0.05% serum albumin (BSA)] to the substances in the test plate. This was followed by a 10-minute incubation step at 22° C. for the pre-equilibration of putative complexes between BRD4(1) and the substances.
The mixture was then incubated in the dark at 22° C. for one hour and then at 4° C. for at least 3 hours and for no longer than overnight. The formation of BRD4(1)/Ac-H4 complexes was determined by the measurement of the resonance energy transfer from the streptavidin-Eu cryptate to the anti-6His-XL665 antibody present in the reaction. For this purpose, the fluorescence emission was measured at 620 nm and 665 nm after excitation at 330-350 nm in a TR-FRET measuring instrument, for example a Rubystar or Pherastar (both from BMG Lab Technologies, Offenburg, Germany) or a Viewlux (Perkin-Elmer). The ratio of the emissions at 665 nm and at 622 nm was taken as an indicator of the amount of BRD4(1)/Ac-H4 complexes formed.
The data (ratios) obtained were normalized, with 0% inhibition corresponding to the mean from the measurements for a set of controls (typically 32 data points) in which all the reagents were present. In these, in place of test substances, 50 nl of DMSO (100%) were used Inhibition of 100% corresponded to the mean from the measurements for a set of controls (typically 32 data points) in which all the reagents except BRD4(1) were present. The IC50 was determined by regression analysis based on a 4-parameter equation (minimum, maximum, IC50, Hill; Y=Max+(Min−Max)/(1+(X/IC50)Hill).

MOLM-13 cell line = assay: MOLM-13 cell proliferation assay (alamarBlue); assay type: cell-based; details: Homo sapiens; MOLM-13 cells, 96 hours incubation, inhibition of cell proliferation
Method: In accordance with the invention, the substances were tested for their ability to inhibit the proliferation of the MOLM-13 cell linie (Deutsche Sammlung far Mikroorganismen and Zellkulturen [German Collection of Microorganisms and Cell Cultures], ACC 554). Cell viability was determined by means of the alamarBlue® reagent (Invitrogen) in a Victor X3 Multilabel Reader (Perkin Elmer). The excitation wavelength was 530 nm and the emission wavelength […].
The MOLM-13 cells were shown at a density of 4000 cells/well in 100 μl of growth medium on 96-well microtitre plates. After overnight incubation at 37° C., the fluorescence values (CI values) were determined. The plates were then treated with various substance dilutions and incubated at 37° C. for 96 hours. Subsequently, the fluorescence values were determined (CO values). For the data analysis, the CI values were subtracted from the CO values and the results were compared between cells which had been treated with various dilutions of the substance or only with buffer solution. The IC50 values (substance concentration needed for 50% inhibition of cell proliferation) were calculated therefrom.

Plk-1 = target: T2, Plk-1 (Homo sapiens, UniProt P53350); assay: Plk-1 enzyme assay (indirect HTRF kinase assay); assay type: biochemical
T2 construct: Recombinant fusion protein consisting of GST and Plk (kinase domain 33-345); MW 36 kDa; GST; made in house; host or cells: insect cells (Hi5)
T2 sequence (P53350 33-345): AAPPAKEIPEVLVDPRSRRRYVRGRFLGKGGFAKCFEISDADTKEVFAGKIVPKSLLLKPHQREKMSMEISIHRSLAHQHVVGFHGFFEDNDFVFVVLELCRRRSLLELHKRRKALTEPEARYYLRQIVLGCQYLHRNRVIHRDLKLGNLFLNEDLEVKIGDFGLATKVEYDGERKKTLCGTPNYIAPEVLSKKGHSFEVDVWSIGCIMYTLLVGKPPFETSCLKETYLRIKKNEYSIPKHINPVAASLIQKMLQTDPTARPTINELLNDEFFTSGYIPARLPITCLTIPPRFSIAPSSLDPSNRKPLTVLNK
Method: Recombinant fusion protein consisting of GST and Plk (kinase domain 33-345; MW 36 kDa, conc 0.8 μg/μl) expressed from insect cells (Hi5) and purified by glutathione Sepharose affinity chromatography and subsequent gel filtration (Superdex 75) is used for the kinase assay. Aliquots thereof are frozen in liquid nitrogen and stored at −80° C. and, after thawing, used only once.
The assay used is an indirect HTRF assay which employs the following materials and procedures. The substrate used for the kinase reaction is the biotinylated peptide Btn-Ahx-KKLNRTLSFAEPG-amide x TFA from Biosyntan, Sample No.: 6178.1 (C-terminus in amide form). This is an artificial sequence not derived from any known protein. 50 nl of the test compounds dissolved in 100% dimethyl sulphoxide (DMSO) (final concentrations: 0 μM and concentrations in the range of 0.001-20 μM) are pre-incubated with 2 μl Plk-1 enzyme working solution in working buffer [25 mM MgCl2; 1 mM DTT; 50 mM Hepes pH 7.0; 0.01% NP40; 1× Complete; 0.05% BSA] for 30 min. The kinase reaction is then initiated by addition of 3 μl of substrate solution [adenosine triphosphate (ATP) and 1.4 μM substrate peptide (biotin-Ttds-KKLNRTLSFAEPG-NH2)] in working buffer, and, after 30 min, stopped by addition of a stopper solution (100 mM EDTA, 100 mM Hepes pH 7.5, 800 mM potassium fluoride, 0.12% BSA, 0.4 μM SA-XLent (0.05 μM, from CIS bio international, Marcoule, France), Eu^3+ cryptate-conjugated rabbit anti-mouse IgG (1.5 nM; an anti-mouse IgG antibody labelled with europium cryptate from CIS bio international, Marcoule, France), 1 nM anti-phospho-serine kinase (a phospho-specific antibody from Upstate Biotechnology, Dundee, Scotland), and incubated at 4° C. overnight.
For the test at low ATP concentration, a 1.25 ng/μl Plk-1 working solution and 16.7 μM ATP are used, for the test at high ATP concentration, a 0.039 ng/μl Plk-1 working solution and 16.7 mM ATP are used.
The amount of phosphorylated substrate peptide is then determined by measuring the resonance energy transfer from europium-labelled antibody complex to streptavidine-XLent. To this end, the fluorescence emission at 620 nm and 665 nm is measured following excitation at 350 nm in an HTRF measuring instrument, e.g. Rubystar (BMG Labtechnologies, Offenburg, Germany) or Viewlux (Perkin-Elmer). The ratio of the emissions at 665 nm and at 620 nm is taken as a measure of the amount of phosphorylated substrate peptide. The data are normalized (enzyme reaction without inhibitor=0% inhibition, all other assay components, but no enzyme=100% inhibition), and IC50 values are calculated using a 4 parameter equation (minimum, maximum, IC50, Hill; Y=max+(min−max)/(1+(X/IC50)Hill)).

[2] = 10 μM ATP (low ATP concentration), read-out: IC50 [Plk-1] (10 μM ATP)
[3] = 10 mM ATP (high ATP concentration), read-out: IC50 [Plk-1] (10 mM ATP)

Row | SMILES | IC50 [1] | IC50 (MOLM-13 cell line) | IC50 (Plk-1; [2]) | IC50 (Plk-1; [3])
1 | COc1cc(C(=O)NC2CC2)cnc1Nc1cc2c(cn1)N(C)C(=O)C(C)N2C1CCCC1 (stereo not drawn) [Example 1, 6-{[1-Cyclopentyl-2,4-dimethyl-3-oxo-1,2,3,4-tetrahydropyrido[3,4-b]pyrazin-7-yl]amino}-N-cyclopropyl-5-methoxypyridine-3-carboxamide] | 204 nM | 209 nM | 15 nM | 
2 | CC[C@@H]1C(=O)N(C)c2cnc(Nc3ncc(C4=NC(C)(C)CO4)cc3OC)cc2N1C1CCCC1 [Example 19, 1N-Cyclopentyl-7-[[5-(4,5-dihydro-4,4-dimethyl-2-oxazolyl)-3-methoxy-2-pyridinyl]amino]-(2R)-ethyl-4N-methyl-1,4-dihydropyrido[3,4-b]pyrazin-3(2H)-one] | 732 nM | 362 nM |  | 99 nM
3 | CC[C@@H]1C(=O)N(C)c2cnc(Nc3ncc(C(=O)NC4CC4)cc3OC)cc2N1C1CCCC1 [Example 5, 6-[[(2R)-1-Cyclopentyl-2-ethyl-1,2,3,4-tetrahydro-4-methyl-3-oxopyrido[3,4-b]pyrazin-7-yl)amino]-N-cyclopropyl-5-methoxy-3-pyridinecarboxamide] | 225 nM | 29 nM | 7 nM | 21 nM
4 | CC[C@@H]1C(=O)N(C)c2cnc(Nc3ncc(C(=O)NCC(F)(F)F)cc3OC)cc2N1C1CCCC1 [Example 7, 6-[[(2R)-1-Cyclopentyl-2-ethyl-1,2,3,4-tetrahydro-4-methyl-3-oxopyrido[3,4-b]pyrazin-7-yl]amino]-5-methoxy-N-(2,2,2-trifluoroethyl)-3-pyridinecarboxamide] | 276 nM | 80 nM | 11 nM | 30 nM
5 | CC[C@@H]1C(=O)N(C)c2cnc(Nc3ncc(C(=O)NC4CCN(C)CC4)cc3C)cc2N1C1CCCC1 [Example 18, 6-[[(2R)-1-Cyclopentyl-2-ethyl-1,2,3,4-tetrahydro-4-methyl-3-oxopyrido[3,4-b]pyrazin-7-yl]amino]-5-methyl-N-(1-methyl-4-piperidinyl)pyridine-3-carboxamide] | 649 nM | 42 nM |  | 7 nM
6 | CC[C@@H]1C(=O)N(C)c2cnc(Nc3ncc(C(=O)NC4CCCCC4)cc3OC)cc2N1C1CCCC1 [Example 20, N-Cyclohexyl-6-[[(2R)-1-cyclopentyl-2-ethyl-1,2,3,4-tetrahydro-4-methyl-3-oxopyrido[3,4-b]pyrazin-7-yl]amino]-5-methoxypyridine-3-carboxamide] | 878 nM | 101 nM |  | 35 nM
7 | CC[C@@H]1C(=O)N(C)c2cnc(Nc3ncc(C(=O)NC4CCOCC4)cc3C)cc2N1C1CCCC1 [Example 17, 6-{[(2R)-1-Cyclopentyl-2-ethyl-4-methyl-3-oxo-1,2,3,4-tetrahydropyrido[3,4-b]pyrazin-7-yl]amino}-5-methyl-N-(tetrahydro-2H-pyran-4-yl)pyridine-3-carboxamide] | 539 nM | 55 nM | 8 nM | 14 nM
8 | CC[C@@H]1C(=O)N(C)c2cnc(Nc3ncc(C(=O)NC4CCOCC4)cc3OC)cc2N1C1CCCC1 [Example 10, 6-[[(2R)-1-Cyclopentyl-2-ethyl-1,2,3,4-tetrahydro-4-methyl-3-oxopyrido[3,4-b]pyrazin-7-yl]amino]-5-methoxy-N-(tetrahydro-2H-pyran-4-yl)-3-pyridinecarboxamide] | 376 nM | 43 nM |  | 31 nM
9 | CC[C@@H]1C(=O)N(C)c2cnc(Nc3ncc(C(=O)NCc4cccnc4)cc3OC)cc2N1C1CCCC1 [Example 12, 6-[[(2R)-1-Cyclopentyl-2-ethyl-1,2,3,4-tetrahydro-4-methyl-3-oxopyrido[3,4-b]pyrazin-7-yl]amino]-5-methoxy-N-(3-pyridinylmethyl)-3-pyridinecarboxamide] | 424 nM | 52 nM |  | 23 nM
